Entries after “also recorded” stand apart in the source; their conditions may differ. Where two headings read alike, the source gives them in different places.
Tests used:
CD4+ T cells [1] = assay: Meta-analysis of published SARS-CoV-2 CD4 T cell epitope data curated in the IEDB (25 studies); format: cell-based, human
CD4+ T cells [2] = details: cited from earlier work; for Allele(s): HLA class II allele(s) identified as MHC restriction elements of the CD4 epitope; for Restriction: T cell subset (CD4 or CD8) recognizing the SARS-CoV-2 epitope
[3] = CD4RE megapool peptides (non-spike SARS-CoV-2 CD4 epitopes), dominant = recognized by 3 or more donors/different studies
[4] = CD4R (D) Megapool, non-spike antigens, dominant = recognized in 3 or more donors/studies
[5] = SARS-CoV-2-derived CD4 epitopes, Yes = recognized by 3 or more donors/different studies

Substance | Allele(s) (CD4+ T cells [2]) | Restriction (CD4+ T cells [2]) | other results
2656 (WPQIAQFAPSASAFF) [compound 2656] |  |  | Dominant (CD4+ T cells [1]; [3]): Yes (more dominant epitopes are defined by being recognized by 3 or more donors/different studies)
2617 (QFAYANRNRFLYIIK) [compound 2617] |  |  | Dominant (CD4+ T cells [1]; [3]): Yes (more dominant epitopes are defined by being recognized by 3 or more donors/different studies)
2660 (GTWLTYTGAIKLDDK) [compound 2660] |  |  | Dominant (CD4+ T cells [1]; [3]): Yes (more dominant epitopes are defined by being recognized by 3 or more donors/different studies)
2301 (KEITVATSRTLSYYK) [compound 2301] |  |  | Dominant (CD4+ T cells [1]; [4]): Yes (more dominant epitopes are defined by being recognized by 3 or more donors/different studies)
2637 (ASWFTALTQHGKEDL) [compound 2637] |  |  | Dominant (CD4+ T cells [1]; [3]): Yes (more dominant epitopes are defined by being recognized by 3 or more donors/different studies)
2317 (AIVLQLPQGTTLPKG) [compound 2317] |  |  | Dominant (CD4+ T cells [1]; [4]): Yes (more dominant epitopes are defined by being recognized by 3 or more donors/different studies)
2632 (SRTLSYYKLGASQRV) [compound 2632] |  |  | Dominant (CD4+ T cells [1]; [3]): Yes (more dominant epitopes are defined by being recognized by 3 or more donors/different studies)
2661 (FKDQVILLNKHIDAY) [compound 2661] |  |  | Dominant (CD4+ T cells [1]; [3]): Yes (more dominant epitopes are defined by being recognized by 3 or more donors/different studies)
2314 (RWYFYYLGTGPEAGL) [compound 2314] |  |  | Dominant (CD4+ T cells [1]; [4]): Yes (more dominant epitopes are defined by being recognized by 3 or more donors/different studies)
2326 (YKHWPQIAQFAPSAS) [compound 2326] |  |  | Dominant (CD4+ T cells [1]; [4]): Yes (more dominant epitopes are defined by being recognized by 3 or more donors/different studies)
2287 (FYVYSRVKNLNSSRV) [compound 2287] |  |  | Dominant (CD4+ T cells [1]; [4]): Yes (more dominant epitopes are defined by being recognized by 3 or more donors/different studies)
2648 (DAALALLLLDRLNQL) [compound 2648] |  |  | Dominant (CD4+ T cells [1]; [3]): Yes (more dominant epitopes are defined by being recognized by 3 or more donors/different studies)
2325 (LIRQGTDYKHWPQIA) [compound 2325] |  |  | Dominant (CD4+ T cells [1]; [4]): Yes (more dominant epitopes are defined by being recognized by 3 or more donors/different studies)
2302 (TSRTLSYYKLGASQRVA) [compound 2302] |  |  | Dominant (CD4+ T cells [1]; [4]): Yes (more dominant epitopes are defined by being recognized by 3 or more donors/different studies)
2305 (SYYKLGASQRVAGDS) [compound 2305] |  |  | Dominant (CD4+ T cells [1]; [4]): Yes (more dominant epitopes are defined by being recognized by 3 or more donors/different studies)
2636 (SGFAAYSRYRIGNYK) [compound 2636] |  |  | Dominant (CD4+ T cells [1]; [3]): Yes (more dominant epitopes are defined by being recognized by 3 or more donors/different studies)
2659 (PSGTWLTYTGAIKLD) [compound 2659] |  |  | Dominant (CD4+ T cells [1]; [3]): Yes (more dominant epitopes are defined by being recognized by 3 or more donors/different studies)
2332 (FKDQVILLNKHIDAY) [compound 2332] |  |  | Dominant (CD4+ T cells [1]; [4]): Yes (more dominant epitopes are defined by being recognized by 3 or more donors/different studies)
2640 (IGYYRRATRRIRGGD) [compound 2640] |  |  | Dominant (CD4+ T cells [1]; [3]): Yes (more dominant epitopes are defined by being recognized by 3 or more donors/different studies)
2644 (NKDGIIWVATEGALN) [compound 2644] |  |  | Dominant (CD4+ T cells [1]; [3]): Yes (more dominant epitopes are defined by being recognized by 3 or more donors/different studies)
2331 (GTWLTYTGAIKLDDK) [compound 2331] |  |  | Dominant (CD4+ T cells [1]; [4]): Yes (more dominant epitopes are defined by being recognized by 3 or more donors/different studies)

Substance | Allele(s) (CD4+ T cells [2]) | Restriction (CD4+ T cells [2]) | other results
2345 (QEEVQELYSPIFLIV) [compound 2345] |  |  | Dominant (CD4+ T cells [1]; [4]): Yes (more dominant epitopes are defined by being recognized by 3 or more donors/different studies)
2638 (SWFTALTQHGKEDLK) [compound 2638] |  |  | Dominant (CD4+ T cells [1]; [3]): Yes (more dominant epitopes are defined by being recognized by 3 or more donors/different studies)
2625 (LRGHLRIAGHHLGRC) [compound 2625] |  |  | Dominant (CD4+ T cells [1]; [3]): Yes (more dominant epitopes are defined by being recognized by 3 or more donors/different studies)
2634 (SYYKLGASQRVAGDS) [compound 2634] |  |  | Dominant (CD4+ T cells [1]; [3]): Yes (more dominant epitopes are defined by being recognized by 3 or more donors/different studies)
2333 (ILLNKHIDAYKTFPP) [compound 2333] |  |  | Dominant (CD4+ T cells [1]; [4]): Yes (more dominant epitopes are defined by being recognized by 3 or more donors/different studies)
2294 (SELVIGAVILRGHLR) [compound 2294] |  |  | Dominant (CD4+ T cells [1]; [4]): Yes (more dominant epitopes are defined by being recognized by 3 or more donors/different studies)
11 (NRNRFLYIIKLIFLW) [compound 11] | DQB1*02:01, DQB1*05:03,; also recorded: DRB1*03:01, DRB1*12:01 | CD4 | 
33 (RGHLRIAGHHLGRCD) [compound 33] | DRB1*07:01, DRB1*13:01,; also recorded: DRB1*14:01, DRB1*15:01 | CD4 | Dominant (CD4+ T cells [2]; [5]): Yes (more dominant epitopes are defined by being recognized by 3 or more donors/different studies)
47 (YSRYRIGNYKLNTDH) [compound 47] |  | CD4 | 
19 (CLVGLMWLSYFIASF) [compound 19] | DQB1*05:01, DQB1*05:03,; also recorded: DRB1*12:01, DRB1*12:02 | CD4 | Dominant (CD4+ T cells [2]; [5]): Yes (more dominant epitopes are defined by being recognized by 3 or more donors/different studies)
35 (IAGHHLGRCDIKDLP) [compound 35] |  | CD4 | Dominant (CD4+ T cells [2]; [5]): Yes (more dominant epitopes are defined by being recognized by 3 or more donors/different studies)
103 (QKKQQTVTLLPAADL) [compound 103] | DRB1*01:02 | CD4 | 
5 (EELKKLLEQWNLVIG) [compound 5] | DQB1*05:01, DQB1*05:02 | CD4 | 
1 (SEETGTLIVNSVLLF) [compound 1] | DQB1*03:01 | CD4 | 
24 (SFNPETNILLNVPLH) [compound 24] | DRB1*01:02 | CD4 | 
9 (WICLLQFAYANRNRF) [compound 9] | DQB1*05:03, DRB1*03:01,; also recorded: DRB1*14:01 | CD4 | 
23 (TRSMWSFNPETNILL) [compound 23] | DQB1*05:03, DRB1*01:02 | CD4 | 
91 (AFFGMSRIGMEVTPS) [compound 91] |  | CD4 | 
31 (GAVILRGHLRIAGHH) [compound 31] | DRB1*13:01, DRB1*15:01 | CD4 | 
15 (VLAAVYRINWITGGI) [compound 15] | DQB1*05:01, DQB1*05:03,; also recorded: DRB1*12:02, DRB1*14:01 | CD4 | Dominant (CD4+ T cells [2]; [5]): Yes (more dominant epitopes are defined by being recognized by 3 or more donors/different studies)
96 (TWLTYTGAIKLDDKDPNF) [compound 96] |  | CD4 | 

Substance | Allele(s) (CD4+ T cells [2]) | Restriction (CD4+ T cells [2]) | other results
7 (NLVIGFLFLTWICLL) [compound 7] | DQB1*05:01, DRB1*01:02 | CD4 | 
25 (TNILLNVPLHGTILT) [compound 25] | DRB1*10:01, DRB1*12:02,; also recorded: DRB1*14:01, DRB1*14:06,; also recorded: DRB1*15:01, DRB1*16:02 | CD4 | Dominant (CD4+ T cells [2]; [5]): Yes (more dominant epitopes are defined by being recognized by 3 or more donors/different studies)
258 (QEEVQELYSPIFLIV) [compound 258] |  |  | Dominant (CD4+ T cells [2]; CD4 epitopes, dominant = recognized by 3 or more donors/different studies): Yes (more dominant epitopes are defined by being recognized by 3 or more donors/different studies)
12 (LYIIKLIFLWLLWPV) [compound 12] | DQB1*02:01, DRB1*12:01 | CD4 | 
17 (ITGGIAIAMACLVGL) [compound 17] | DQB1*03:01 | CD4 | 
6 (LLEQWNLVIGFLFLT) [compound 6] | DQB1*02:01, DQB1*05:03 | CD4 | 
76 (GKGQQQQGQTVTKKS) [compound 76] |  | CD4 | 
29 (SELVIGAVILRGHLR) [compound 29] | DQB1*06:02, DQB1*06:03,; also recorded: DRB1*01:02, DRB1*13:01,; also recorded: DRB1*14:01, DRB1*15:01,; also recorded: DRB1*16:01 | CD4 | Dominant (CD4+ T cells [2]; [5]): Yes (more dominant epitopes are defined by being recognized by 3 or more donors/different studies)
67 (LPYGANKDGIIWVAT) [compound 67] |  | CD4 | 
95 (GTWLTYTGAIKLDDK) [compound 95] |  | CD4 | Dominant (CD4+ T cells [2]; [5]): Yes (more dominant epitopes are defined by being recognized by 3 or more donors/different studies)
48 (IGNYKLNTDHSSSSD) [compound 48] | DRB1*03:01 | CD4 | 
56 (FPRGQGVPINTNSSP) [compound 56] |  | CD4 | 
50 (PQNQRNAPRITFGGP) [compound 50] |  | CD4 | 
93 (GMEVTPSGTWLTYTG) [compound 93] |  | CD4 | 
75 (LLLLDRLNQLESKMS) [compound 75] | DQB1*05:01, DRB1*03:01,; also recorded: DRB1*11:01, DRB1*12:01,; also recorded: DRB1*14:01, DRB1*15:01 | CD4 | Dominant (CD4+ T cells [2]; [5]): Yes (more dominant epitopes are defined by being recognized by 3 or more donors/different studies)
46 (SGFAAYSRYRIGNYK) [compound 46] | DRB1*15:01 | CD4 | Dominant (CD4+ T cells [2]; [5]): Yes (more dominant epitopes are defined by being recognized by 3 or more donors/different studies)
88 (WPQIAQFAPSASAFF) [compound 88] | DQB1*02:02, DQB1*05:03,; also recorded: DRB1*04:04, DRB1*07:01,; also recorded: DRB1*15:01 | CD4 | Dominant (CD4+ T cells [2]; [5]): Yes (more dominant epitopes are defined by being recognized by 3 or more donors/different studies)
22 (RLFARTRSMWSFNPE) [compound 22] | DQB1*05:03, DRB1*14:01 | CD4 | 
40 (TSRTLSYYKLGASQRVA) [compound 40] |  | CD4 | Dominant (CD4+ T cells [2]; [5]): Yes (more dominant epitopes are defined by being recognized by 3 or more donors/different studies)

— patent publication US20250231185A1, “Coronavirus T Cell Epitopes, Megapools and Uses Thereof” (La Jolla Institute for Immunology, priority 2021, published 2025)
